Results from US20150064713A1, “METHODS, KITS AND MEANS FOR DETERMINING INTRACELLULAR INTERACTIONS” (priority 2013, published 2015).

Test system: regulatory and catalytic subunits of the cAMP dependent protein kinase A (PKA)
Experiment: PKA regulatory/catalytic subunit interaction monitored in living cells via VSVG RII-β-PARC (bait) and mCherry-cat-α (prey), TIRFM
Assay type: cell-based
Details: mCherry-cat-α prey, within seconds upon addition
Description: FIG. 8 Monitoring protein reaction dynamics inside individual cells. A: Domain structures of bait-PARCs to measure PKA subunit interactions. B: A bait-PARC containing the regulatory domain RII-β of PKA was co-expressed with the cytosolic prey protein (mCherry-cat- ? to monitor their interaction dynamics inside living cells. Left: Recruitment of the prey to bait microstructures before and after pharmacological perturbation. Right: Derived prey recruitment kinetics (Iso: Isoproterenol; Prop: Propranolol; F/I: forskolin+IBMX; see Supplementary Methods for details). Scale bar: 5 μm. c: Two distinct regulatory domains on bait-PARCs were co-expressed together with the prey protein mCherry-cat- ? . Left: Image of a representative experiment depicting cells grown on a DNA-immobilized antibody array. The checkerboard pattern of antibodies is overlayed with magenta (anti-HA) or cyan (anti-VSVG) circles. Right: The recruitment of prey proteins to the two distinct bait proteins was monitored in individual microstructured spots via TIRFM during pharmacological perturbation (Iso: Isoproterenol; ATP: adenosine triphosphate; F/I: forskolin+IBMX). Scale bar: 10 μm.
Agonist induced activation of G-protein coupled receptors (GPCRs) leads to the dissociation of regulatory and catalytic subunits of the cAMP dependent protein kinase A (PKA) (Wong and Scott, 2004). […]

CC(C)NCC(O)c1ccc(O)c(O)c1 (stereo not shown) [isoproterenol] was tested. Which “interaction between bait and prey upon addition of agonist” value did it give?
The value was “the interaction between bait and prey was lost”.
